Assay results from US8114867B2, “Oxazolidinone antibiotic derivatives” (Actelion Pharmaceuticals Ltd, priority 2007, dated 2012).
Values after ≈ are worked out from the molar mass of the structure shown.

Tested on: S. aureus 29213
Test: MIC by broth microdilution (NCCLS), S. aureus 29213
Assay type: cell-based
Conditions: strain S. aureus 29213, cation-adjusted Mueller-Hinton Broth, pH 7.2-7.3; for MIC: Staphylococcus aureus
Description: These assays have been performed following the description given in “Methods for dilution Antimicrobial Susceptibility Tests for Bacteria that Grow Aerobically, 4th ed.; Approved standard: NCCLS Document M7-A4; National Committee for Clinical Laboratory Standards: Villanova, Pa., USA, 1997”. Minimal inhibitory concentrations (MICs; mg/l) were determined in cation-adjusted Mueller-Hinton Broth (BBL) by a microdilution method following NCCLS guidelines (National Committee for Clinical Laboratory Standards. Methods for Dilution Antimicrobial Susceptibility). The pH of the test medium was 7.2-7.3.

Compound | MIC [µg/mL] | MIC S. aureus 29213
COc1ccc2nccc(COCCCC3CN(c4ccc5c(c4)OCCO5)C(=O)O3)c2c1 (racemic) [Example 120, rac-3-(2,3-dihydro-benzo[1,4]dioxin-6-yl)-5-[3-(6-methoxy-quinolin-4-ylmethoxy)-propyl]-oxazolidin-2-one] | 0.125 (≈ 0.277 µM) | 
COCCOc1ccc(CNCCCC2CN(c3ccc4c(c3)NC(=O)CS4)C(=O)O2)c2nc(OC)cnc12 (racemic) [Example 157, rac-6-[5-(3-{[3-methoxy-8-(2-methoxy-ethoxy)-quinoxalin-5-ylmethyl]-amino}-propyl)-2-oxo-oxazolidin-3-yl]-4H-benzo[1,4]thiazin-3-one] | 0.125 (≈ 0.226 µM) | 
COc1ccc2nccc(/C=C/CNC[C@@H]3CN(c4ccc5c(c4)OCCO5)C(=O)O3)c2n1 [Example 29, (R)-3-(2,3-dihydro-benzo[1,4]dioxin-6-yl)-5-{[(E)-3-(6-methoxy-[1,5]naphthyridin-4-yl)-allylamino]-methyl}-oxazolidin-2-one] | ≤ 0.063 | 
COc1ccc2nccc(NC(=O)CNC[C@@H]3CN(c4ccc5c(c4)NC(=O)CS5)C(=O)O3)c2n1 [Example 91, N-(6-methoxy-[1,5]naphthyridin-4-yl)-2-{[(R)-2-oxo-3-(3-oxo-3,4-dihydro-2H-benzo[1,4]thiazin-6-yl)-oxazolidin-5-ylmethyl]-amino}-acetamide] | ≤ 0.063 | 
COc1ccc2ncc(F)c(CNC[C@H](O)[C@@H](O)[C@@H]3CN(c4ccc5c(c4)OCCO5)C(=O)O3)c2c1 [Example 181, (S)-3-(2,3-dihydro-benzo[1,4]dioxin-6-yl)-5-{(1R,2S)-3-[(3-fluoro-6-methoxy-quinolin-4-ylmethyl)-amino]-1,2-dihydroxy-propyl}-oxazolidin-2-one] | ≤ 0.063 | 
COc1ccc2nccc(CC(N)CNC[C@@H]3CN(c4ccc5c(c4)NC(=O)CS5)C(=O)O3)c2n1 (mixture of isomers) [Example 89, 6-((R)-5-{[(2RS)-2-amino-3-(6-methoxy-[1,5]naphthyridin-4-yl)-propylamino]-methyl}-2-oxo-oxazolidin-3-yl)-4H-benzo[1,4]thiazin-3-one] | 0.125 | 
COc1ccc2ncc(F)c(CN(CCCC3CN(c4ccc5c(c4)NC(=O)CS5)C(=O)O3)C[C@@H](O)CN(C)C)c2n1 (mixture of isomers) [Example 153, 6-((RS)-5-{3-[((S)-3-dimethylamino-2-hydroxy-propyl)-(3-fluoro-6-methoxy-[1,5]naphthyridin-4-ylmethyl)-amino]-propyl}-2-oxo-oxazolidin-3-yl)-4H-1-benzo[1,4]thiazin-3-one] |  | ≦0.063 mg/l
COc1cnc2cccc(CCCN(C)C[C@@H]3CN(c4ccc(C)c(F)c4)C(=O)O3)c2c1 [Example 43, (R)-3-(3-fluoro-4-methyl-phenyl)-5-({[3-(3-methoxy-quinolin-5-yl)-propyl]-methyl-amino}-methyl)-oxazolidin-2-one] | ≤ 0.063 | 
COc1cnc2cccc(CCCNC[C@@H]3CN(c4ccc5c(c4)NC(=O)CS5)C(=O)O3)c2c1 [Example 35, 6-((R)-5-{[3-(3-methoxy-quinolin-5-yl)-propylamino]-methyl}-2-oxo-oxazolidin-3-yl)-4H-benzo[1,4]thiazin-3-one] | ≤ 0.063 | 
COc1ccc2ncc(F)c(C(O)CCCCC3CN(c4ccc5c(c4)OCCO5)C(=O)O3)c2n1 (stereo not drawn) [Example 62, 3-(2,3-dihydro-benzo[1,4]dioxin-6-yl)-5-[5-(3-fluoro-6-methoxy-[1,5]naphthyridin-4-yl)-5-hydroxy-pentyl]-oxazolidin-2-one] | ≤ 0.063 | 
COc1cnc2cccc(/C=C/C(=O)NC[C@@H]3CN(c4ccc5c(c4)OCCO5)C(=O)O3)c2n1 [Example 5, (E)-N-[(R)-3-(2,3-dihydro-benzo[1,4]dioxin-6-yl)-2-oxo-oxazolidin-5-ylmethyl]-3-(3-methoxy-quinoxalin-5-yl)-acrylamide] | ≤ 0.063 | 
6-((RS)-5-{[(2R,3R)-2,3-dihydroxy-3-(6-methoxy-[1,5]naphthyridin-4-yl)-propylamino]-methyl}-2-oxo-oxazolidin-3-yl)-4H-benzo[1,4]thiazin-3-one and 6-((RS)-5-{[(2S,3S)-2,3-dihydroxy-3-(6-methoxy-[1,5]naphthyridin-4-yl)-propylamino]-methyl}-2-oxo-oxazolidin-3-yl)-4H-benzo[1,4]thiazin-3-one [Example 52] |  | 0.25 µg/mL
